The values below come from patent US11001590B2, “Pyrazolopyrimidine derivatives” (BAYER ANIMAL HEALTH GMBH, priority 2016, dated 2021).

The target of one data set is C. elegans Slo-1a (Caenorhabditis elegans, UniProt Q95V25). The data set can be described thus: In vitro assay 1: C. elegans Slo-1a, action at a recombinant C. elegans CHO cell line (membrane potential measurement).
For data set [1], the system named is Litomosoides sigmodontis third-stage larvae. The data set can be described thus: In vitro assay 7: Litomosoides sigmodontis L3 (LTMOSI), motility. The conditions noted are these: 72 h, reduction of motility vs negative control, 72 h incubation.
Procedure: In Vitro Assay 7: Litomosoides Siqmodontis L3 (LTMOSI)
10 Litomosoides sigmodontis third-stage larvae, which were freshly isolated from the pleural cavity of an infected rodent, were added to wells of a microtitre plate containing a nutrient medium and the test compound in DMSO. Compounds were tested in concentration-response assay in duplicate. Larvae exposed to DMSO and no test compounds were used as negative controls. Larvae were evaluated after 72 h of incubation with the compound. Efficacy was determined as the reduction of motility in comparison to the negative control. Based on the evaluation of a wide concentration range, concentration-response curves as well as ECso-values were calculated.
The nature of data set [2]: log P by HPLC on reversed phase columns (Method L0; [a] acidic, [b] neutral range).
Procedure: Calibration was done with straight-chain alkan-2-ones (with 3 to 16 carbon atoms) with known log P values (measurement of log P values using retention times with linear interpolation between successive alkanones). Lambda-max-values were determined using UV-spectra from 200 nm to 400 nm and the peak values of the chromatographic signals.
The test system of data set [3] is Dirofilaria immitis microfilariae. The data set can be described thus: In vitro assay 3: Dirofilaria immitis microfilariae (DIROIM L1), motility. The conditions noted are these: 72 h, reduction of motility vs negative control, 72 h incubation.
Data set [4] concerns Dirofilaria immitis third-stage larvae. Description: In vitro assay 4: Dirofilaria immitis (DIROIM L4), motility of larvae. The conditions noted are these: 72 h.

Chain of C. elegans Slo-1a (Q95V25 whole entry): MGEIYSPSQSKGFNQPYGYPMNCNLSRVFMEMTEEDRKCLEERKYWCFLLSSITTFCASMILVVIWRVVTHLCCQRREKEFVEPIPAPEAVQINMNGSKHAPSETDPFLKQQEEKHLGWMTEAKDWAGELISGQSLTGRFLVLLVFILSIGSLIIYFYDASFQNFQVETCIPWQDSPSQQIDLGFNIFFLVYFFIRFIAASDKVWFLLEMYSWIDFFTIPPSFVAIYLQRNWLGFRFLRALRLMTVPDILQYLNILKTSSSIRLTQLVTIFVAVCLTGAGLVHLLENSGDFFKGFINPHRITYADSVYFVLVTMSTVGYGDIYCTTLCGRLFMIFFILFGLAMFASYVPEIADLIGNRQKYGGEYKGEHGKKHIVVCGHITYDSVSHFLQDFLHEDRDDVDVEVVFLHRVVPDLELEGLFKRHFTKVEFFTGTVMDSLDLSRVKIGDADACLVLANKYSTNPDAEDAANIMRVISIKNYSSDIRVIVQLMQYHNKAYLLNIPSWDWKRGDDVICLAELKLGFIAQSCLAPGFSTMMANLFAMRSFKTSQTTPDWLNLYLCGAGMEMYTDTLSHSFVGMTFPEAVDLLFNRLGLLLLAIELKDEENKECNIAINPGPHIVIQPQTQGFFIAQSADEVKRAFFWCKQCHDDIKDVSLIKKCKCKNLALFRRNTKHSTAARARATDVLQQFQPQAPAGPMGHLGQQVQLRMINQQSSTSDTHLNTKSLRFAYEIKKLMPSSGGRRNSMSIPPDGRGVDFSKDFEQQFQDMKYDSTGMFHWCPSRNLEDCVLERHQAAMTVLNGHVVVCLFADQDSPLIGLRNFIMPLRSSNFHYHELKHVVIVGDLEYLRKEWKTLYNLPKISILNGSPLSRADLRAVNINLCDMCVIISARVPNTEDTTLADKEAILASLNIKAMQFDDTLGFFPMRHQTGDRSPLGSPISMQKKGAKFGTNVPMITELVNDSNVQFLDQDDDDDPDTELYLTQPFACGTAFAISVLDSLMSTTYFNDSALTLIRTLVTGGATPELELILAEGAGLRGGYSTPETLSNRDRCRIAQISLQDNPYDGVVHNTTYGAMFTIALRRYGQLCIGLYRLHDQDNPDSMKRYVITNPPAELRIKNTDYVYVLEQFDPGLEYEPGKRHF

For orientation: EC50 means the concentration needed to bring the measured effect to its halfway point. A word on the chromatographic logP: it is a lipophilicity value derived from retention on a column. A lower chromatographic logP goes with lower lipophilicity. Consider `Cc1nn2c(C(C)C)c(C(=O)N[C@H]3CCCc4ccccc43)cnc2c1-c1cccc(Cl)c1` [Example 45], for which the EC50 at C. elegans Slo-1a is 50.1 nM; in data set [1] it was below 0.1 µg/mL; in data set [3], below 0.1 µg/mL; in data set [4], below 1 µg/mL. In data set [2], this compound came in with a chromatographic logP of 5.51.

In the case of `CC(C)c1c(C(=O)N[C@H]2CCc3ccccc32)cnc2c(-c3ccccc3Cl)c(Cl)nn12` [Example 79], the EC50 was 20 nM on C. elegans Slo-1a, below 0.1 µg/mL in data set [1], below 0.1 µg/mL in data set [3] and below 0.1 µg/mL in data set [4]. This compound gave a chromatographic logP in data set [2] of 4.79.

For the compound `Cc1nn2c(C(C)C)c(C(=O)N[C@H]3CCOc4ccccc43)cnc2c1-c1ccccc1F` [Example 92], the concentration for a half-maximal effect (EC50) at C. elegans Slo-1a is 6.31 nM; in data set [1], below 0.1 µg/mL; in data set [3], below 0.1 µg/mL; in data set [4] it was below 0.1 µg/mL. In data set [2], this compound came in with a chromatographic logP of 4.18.

As to `Cc1nn2c(C(C)C)c(C(=O)N[C@H]3CCc4ccccc43)cnc2c1-c1ccccc1F` [Example 95], the EC50 at C. elegans Slo-1a is 6.31 nM; in data set [1], below 0.1 µg/mL; in data set [3] it was below 0.1 µg/mL; in data set [4] it was below 0.1 µg/mL. Besides, the chromatographic logP in data set [2] stood at 4.41.

In the case of `Cc1nn2c(C(C)C)c(C(=O)N[C@H]3CCCc4ccccc43)cnc2c1-c1c(F)cccc1F` [Example 98], the EC50 on C. elegans Slo-1a is 12.6 nM; in data set [1], below 0.1 µg/mL; in data set [3] it was below 0.1 µg/mL; in data set [4] it was below 0.1 µg/mL. In addition, in data set [2], the chromatographic logP is 4.67.

`Cc1nn2c(C(C)C)c(C(=O)N[C@H]3CCc4ccccc43)cnc2c1-c1c(F)cccc1F` [Example 99]: the EC50 on C. elegans Slo-1a was 10 nM; in data set [1], below 0.1 µg/mL; in data set [3], below 0.1 µg/mL; in data set [4] it was below 0.1 µg/mL. This compound also yielded a chromatographic logP in data set [2] of 4.37.

With `Cc1nn2c(C(C)C)c(C(=O)N[C@H]3CCOc4ccccc43)cnc2c1-c1ccc(F)c(F)c1` [Example 100], the EC50 on C. elegans Slo-1a is 7.94 nM; in data set [1] it was below 0.1 µg/mL; in data set [3], below 0.1 µg/mL; in data set [4], below 0.1 µg/mL. In addition, the chromatographic logP in data set [2] was 4.56.

Take `Cc1nn2c(C(C)C)c(C(=O)N[C@H]3CCc4ccccc43)cnc2c1-c1ccc(F)c(F)c1` [Example 103]: the EC50 at C. elegans Slo-1a was 20 nM; in data set [1], below 0.1 µg/mL; in data set [3], below 0.1 µg/mL; in data set [4] it was below 0.1 µg/mL. The chromatographic logP in data set [2] was determined as 4.82.

For the compound `Cc1nn2c(C(C)C)c(C(=O)N[C@H]3CCOc4ccccc43)cnc2c1-c1ccccc1Cl` [Example 107], the EC50 on C. elegans Slo-1a is 5.01 nM; in data set [1], below 0.1 µg/mL; in data set [3] it was below 0.1 µg/mL; in data set [4] it was below 0.1 µg/mL. Besides, the chromatographic logP in data set [2] is 4.37.

On to `Cc1nn2c(C(C)C)c(C(=O)N[C@H]3CCc4ccccc43)cnc2c1-c1cccc(F)c1Cl` [Example 165], for which the 50% effective concentration (EC50) on C. elegans Slo-1a is 2 nM; in data set [3] it was below 0.1 µg/mL; in data set [4], below 0.1 µg/mL. Further, the chromatographic logP in data set [2] came out at 4.74.

In the case of `Cc1nn2c(C(C)C)c(C(=O)N[C@H]3CCCc4ccccc43)cnc2c1-c1cc(Cl)ccc1Cl` [Example 172], the EC50 was 10 nM on C. elegans Slo-1a, below 0.1 µg/mL in data set [3] and below 0.1 µg/mL in data set [4]. The compound further yielded a chromatographic logP in data set [2] of 5.64.

With `Cc1nn2c(C(C)C)c(C(=O)N[C@H]3CCc4ccccc43)cnc2c1-c1cccc(Cl)c1` [Example 287], the half-maximal effective concentration (EC50) on C. elegans Slo-1a was 15.8 nM; in data set [1], below 0.1 µg/mL; in data set [3] it was below 1 µg/mL. The chromatographic logP in data set [2] turned out to be 5.19.

`COc1cccc(-c2c(C)nn3c(C(C)C)c(C(=O)N[C@H]4CCc5ccccc54)cnc23)c1` [Example 289]: the figures for the EC50 (on C. elegans Slo-1a; in data set [1]; in data set [3]) were 15.8 nM, below 0.1 µg/mL and below 1 µg/mL, respectively. In data set [2], this compound had a chromatographic logP of 4.51.

With `Cc1nn2c(C(C)C)c(C(=O)N[C@H]3CCc4ccccc43)cnc2c1-c1cccc(F)c1` [Example 290, (S)—N-(2,3-Dihydro-1H-inden-1-yl)-3-(3-fluorophenyl)-7-isopropyl-2-methylpyrazolo[1,5-a]pyrimidine-6-carboxamide], the EC50 on C. elegans Slo-1a is 15.8 nM; in data set [1] it was below 1 µg/mL; in data set [3] it was below 1 µg/mL. The compound further returned a chromatographic logP in data set [2] of 4.73.

Consider `COCc1cccc(-c2c(C)nn3c(C(C)C)c(C(=O)N[C@H]4CCCc5ccccc54)cnc23)c1` [Example 344], for which the EC50 at C. elegans Slo-1a was 7.94 nM; in data set [3], below 1 µg/mL; in data set [4], below 1 µg/mL. The compound further displayed a chromatographic logP in data set [2] of 4.74.

As for `Cc1nn2c(C3CC3)c(C(=O)N[C@H]3CCc4ccccc43)cnc2c1-c1cccc(N(C)C)c1` [Example 348], the EC50 at C. elegans Slo-1a is 3.98 nM; in data set [3], below 1 µg/mL; in data set [4] it was below 1 µg/mL. In data set [2], this compound returned a chromatographic logP of 2.98.

Consider `COCc1cccc(-c2c(C)nn3c(C4CC4)c(C(=O)N[C@H]4CCc5ccccc54)cnc23)c1` [Example 350], for which the figures for the EC50 (on C. elegans Slo-1a; in data set [3]; in data set [4]) were 10 nM, below 0.1 µg/mL and below 1 µg/mL, respectively. Further, the chromatographic logP in data set [2] is 3.65.

Turning to `Cc1nn2c(C3CC3)c(C(=O)N[C@H]3CCc4ccccc43)cnc2c1-c1ccc(F)c(F)c1` [Example 358], the EC50 is 12.6 nM on C. elegans Slo-1a, below 1 µg/mL in data set [3] and below 1 µg/mL in data set [4]. Besides, in data set [2], the chromatographic logP was 4.1.

As to `Cc1nn2c(C(C)C)c(C(=O)N[C@H]3CCc4ccccc43)cnc2c1-c1cccc(N2CC(F)(F)C2)c1` [Example 364], the EC50 at C. elegans Slo-1a is 10 nM; in data set [3], below 1 µg/mL; in data set [4], below 1 µg/mL. The chromatographic logP in data set [2] came out at 4.89.

Regarding `CC(C)c1c(C(=O)N[C@H]2CCc3ccccc32)cnc2c(-c3c(F)cccc3F)c(C(F)F)nn12` [Example 434], the EC50 on C. elegans Slo-1a is 7.94 nM; in data set [3], below 0.1 µg/mL; in data set [4], below 0.1 µg/mL. For the same compound, the chromatographic logP in data set [2] was determined as 4.23.

In the case of `Cc1nn2c(C3CC3)c(C(=O)N[C@H]3CCOc4ccccc43)cnc2c1-c1c(F)cccc1F` [Example 445], the EC50 at C. elegans Slo-1a was 2 nM; in data set [3] it was below 0.1 µg/mL; in data set [4], below 0.1 µg/mL. In data set [2], this compound registered a chromatographic logP of 3.43.

As to `Cc1nn2c(C3CC3)c(C(=O)N[C@H]3CCOc4ccccc43)cnc2c1-c1cc(F)ccc1F` [Example 448], the concentration for a half-maximal effect (EC50) was 3.16 nM on C. elegans Slo-1a, below 0.1 µg/mL in data set [3] and below 0.1 µg/mL in data set [4]. For the same compound, the chromatographic logP in data set [2] stood at 3.61.

For `Cc1nn2c(C3CC3)c(C(=O)N[C@H]3CCOc4ccccc43)cnc2c1-c1ccccc1F` [Example 450], the EC50 at C. elegans Slo-1a was 3.16 nM; in data set [3], below 0.1 µg/mL; in data set [4], below 0.1 µg/mL. Moreover, the chromatographic logP in data set [2] worked out at 3.45.

Turning to `Cc1nn2c(C3CC3)c(C(=O)N[C@H]3CCOc4ccccc43)cnc2c1-c1ccc(F)cc1` [Example 463], the figures for the EC50 (on C. elegans Slo-1a; in data set [3]; in data set [4]) were 7.94 nM, below 0.1 µg/mL and below 0.1 µg/mL, respectively. The compound also displayed a chromatographic logP in data set [2] of 3.62.

For `Cc1nn2c(N3CCOCC3)c(C(=O)N[C@H]3CCOc4ccccc43)cnc2c1-c1cccc(Cl)c1F` [Example 524], the results for the EC50 (on C. elegans Slo-1a; in data set [3]; in data set [4]) were 1.26 nM, below 0.1 µg/mL and below 0.1 µg/mL, respectively. The chromatographic logP in data set [2] turned out to be 4.69.
